Measurements as given in patent US5721338A, “Inhibitors of oligosaccharyl transferase” (California Institute of Technology, priority 1995, dated 1998).
One block for each molecule: values may come before it. Starred links: 1 amine or outer side, 2 acyl side, 3 side chain; linkers in the order of their positions; H or OH if unused. Positions of bridges follow the written chain, without caps; N, C: chain ends. Non-standard residues stand in square brackets, D forms with d. Residues, ends and D or L forms follow the SMILES beside them. Phe(4-NO2) = N[C@@H](Cc1ccc([N+](=O)[O-])cc1)C(=O)O; X1 = O=C(CCCCC[*:2])[*:1]; Dab = NCC[C@H](N)C(=O)O

Key:
[1] = molecular target: T1, S. Cerevisiae Oligosaccharyl Transferase (Saccharomyces cerevisiae, UniProt P39007); assay: Inhibition kinetics (competitive inhibition) with solubilized yeast oligosaccharyl transferase; glycopeptide production from Dol-P-P-GlcNAc-[3H]-GlcNAc and Bz-Asn-Leu-Thr-NHMe; type: biochemical; conditions: 37.5 μM Bz-Asn-Leu-Thr-NHMe, control rate 701 dpm min^-1
T1 construct: a solubilized preparation of the yeast enzyme oligosaccharyl transferase; endogenous in cells; host or cells: Saccharomyces cerevisiae (crude, Triton-solubilized enzyme preparation)
Experimental: (§1) Inhibition kinetics with 2 and S. Cerevisiae Oligosaccharyl Transferase:
(§2) Prior to assaying, 26.3 μL of the crude enzyme were equilibrated for thirty minutes in the presence of 197.4 μL assay buffer (50 mM Hepes, pH 7.5, 1% Triton-X, 140 mM sucrose, 0.5 mg/mL phosphatidylcholine, and 10 mM MnCl2) and 13.15 μL 750 μM Bz-Asn-Leu-Thr-NHMe in DMSO. […] A 100,000 dpm aliquot of Dol-P-P-GlcNAc-[^3 H]-GlcNAc (specific activity 36.5 Ci/mmol) was brought to dryness in an eppendorf. The lipid-linked donor was then redissolved 10 μL assay buffer. The assay was initiated by the addition of 190 μL of the equilibrated enzyme. Four time points were obtained by removing 40 μL aliquots at 1.5 minute intervals. Each aliquot was quenched in a solution of 1.2 mL 3/2/1 chloroform/methanol/4 mM MgCl2. The aqueous layer was removed and the organic layer was washed twice with 0.6 mL TUP. The aqueous layers were combined and counted (dpm) in 5 mL Ecolite (ICN). The organic layers were brought to dryness under nitrogen solvable (200 μL, Dupont) was added to each organic fraction and agitated for 45 minutes. The organic layers were counted (dpm) in 7 mL Formula 989 (DuPont). Glycopeptide production is expressed as disintegrations per minute based on the values obtained from the dpms of the aqueous layer corrected for the total dpms in the aqueous and organic layers combined.

[2] = substrate: CNC(=O)[C@@H](NC(=O)[C@H](CC(C)C)NC(=O)[C@H](CC(N)=O)NC(=O)c1ccccc1)[C@@H](C)O; assay: as above; type: biochemical, S. Cerevisiae; conditions: other: competing substrate of OT, used in the Ki equation; pH 7.5
Experimental: as §1, §2

rate of glycopeptide production ([1]; 10 nM solution of 2): 572 dpm min^-1
rate of glycopeptide production ([1]; 100 nM solution of 2): 296 dpm min^-1
Molecule: CC(C)[C@H](NC(=O)[C@@H](NC(=O)[C@@H]1CSCCCCCC(=O)N[C@@H](CCN)C(=O)N1)[C@@H](C)O)C(=O)N[C@H](C(=O)N[C@@H](Cc1ccc([N+](=O)[O-])cc1)C(N)=O)[C@@H](C)O [Compound 2, Cyclo(Amb-Cys)-Thr-Val-Thr-Nph] ([Dab]CTVT[Phe(4-NO2)]-NH2; linker N-2 via X1)

B1: S. Cerevisiae Oligosaccharyl Transferase (Saccharomyces cerevisiae S288C) (protein)
chain: MGSDRSCVLSVFQTILKLVIFVAIFGAAISSRLFAVIKFESIIHEFDPWFNYRATKYLVNNSFYKFLNWFDDRTWYPLGRVTGGTLYPGLMTTSAFIWHALRNWLGLPIDIRNVCVLFAPLFSGVTAWATYEFTKEIKDASAGLLAAGFIAIVPGYISRSVAGSYDNEAIAITLLMVTFMFWIKAQKTGSIMHATCAALFYFYMVSAWGGYVFITNLIPLHVFLLILMGRYSSKLYSAYTTWYAIGTVASMQIPFVGFLPIRSNDHMAALGVFGLIQIVAFGDFVKGQISTAKFKVIMMVSLFLILVLGVVGLSALTYMGLIAPWTGRFYSLWDTNYAKIHIPIIASVSEHQPVSWPAFFFDTHFLIWLFPAGVFLLFLDLKDEHVFVIAYSVLCSYFAGVMVRLMLTLTPVICVSAAVALSKIFDIYLDFKTSDRKYAIKPAALLAKLIVSGSFIFYLYLFVFHSTWVTRTAYSSPSVVLPSQTPDGKLALIDDFREAYYWLRMNSDEDSKVAAWWDYGYQIGGMADRTTLVDNNTWNNTHIAIVGKAMASPEEKSYEILKEHDVDYVLVIFGGLIGFGGDDINKFLWMIRISEGIWPEEIKERDFYTAEGEYRVDARASETMRNSLLYKMSYKDFPQLFNGGQATDRVRQQMITPLDVPPLDYFDEVFTSENWMVRIYQLKKDDAQGRTLRDVGELTRSSTKTRRSIKRPELGLRV
notes: a solubilized preparation of the yeast enzyme oligosaccharyl transferase; endogenous in cells; host or cells: Saccharomyces cerevisiae (crude, Triton-solubilized enzyme preparation)
Km [2]: 25 µM
